Laboratory results: US20130059859A1, “PREDICTIVE BIOMARKERS FOR PI3K/AKT KINASE PATHWAY INHIBITOR EFFICACY” (GENENTECH, INC., priority 2010, published 2013)
pIC50: −log10 of the molar value.

What was measured:
FOXO3a = FOXO3a immunofluorescence localization (cytoplasm-to-nucleus translocation) assay; type: cell-based
Description: Tissue culture cells are plated in 96 well culture plates in culture medium with 10% (full) serum. 24 hours later, cells are dosed with 1 uM of indicated drug for 6 hours at which point cells are directly fixed in 4% formaldehyde in protein-free phosphate-buffered saline (PBS) for 20 min at 37° C. Plates are washed and then cells permeabilized by a 10 min incubation in ice cold methanol. Plates are washed to remove methanol and incubated with anti-FOXO3a antibody (Cell Signaling Technology, catalog #2497, clone 75D8) in antibody dilution buffer (1% BSA, 0.3% Triton X-100 in PBS) at a 1:20 dilution of primary antibody, along with Hoechst nuclear stain (1:10,000 dilution). Cells are incubated overnight at 4° C. Plates are washed to remove primary antibody and then incubated with secondary antibody, goat anti-rabbit conjugated to Alexa-flour 488 dye (Invitrogen) for 1 hr at ambient temperature in the dark. Plates are washed with PBS, sealed with black plate sealer and analyzed on the Cellomics HCS ArrayScan Imager using the Cytoplasm-to-Nucleus translocation bioapplication (Thermo Scientific).

[1] = test system: PTEN null breast cancer cell lines; test: Cell line sensitivity to AKT inhibitor (IC50); type: cell-based
breast cancer cell lines = conditions: panel of breast cancer cell lines; Hoeflich et al 2009; cited from earlier work
[2] = PI3K/AKT inhibitor resistant cell lines, FIG. 8
[3] = cell lines sensitive to PI3K/AKT inhibitors, FIG. 7
[4] = resistant lines with PI3K/AKT activation (MB-468 with PTEN loss), FIG. 8

| Compound | FOXO3a localization post-treatment (FOXO3a; BT474 cells, FIG. 2B) | FOXO3a localization upon treatment (FOXO3a; [2]) | FOXO3a localization upon treatment (FOXO3a; [3]) | FOXO3a localization upon treatment (FOXO3a; [4]) | sensitivity of cell line to AKT inhibitor ([1]; MDA-MB-468, cell line with PTEN loss) | pIC50 ([1]; resistant cell lines with PTEN null status, FIG. 5) | FOXO3a localization upon treatment (FOXO3a; cell lines resistant to GDC-0941, FIG. 10B) | FOXO3a localization upon treatment (FOXO3a; cell lines sensitive to GDC-0941, FIG. 10A) | FOXO3a localization upon treatment (FOXO3a; breast cancer cell lines, FIGS. 11A-C) | activity at the concentration used (breast cancer cell lines) |
| --- | --- | --- | --- | --- | --- | --- | --- | --- | --- | --- |
| CC(C)NC[C@@H](C(=O)N1CCN(c2ncnc3c2[C@H](C)C[C@H]3O)CC1)c1ccc(Cl)cc1 [GDC-0068, (S)-2-(4-chlorophenyl)-1-(4-((5R,7R)-7-hydroxy-5-methyl-6,7-dihydro-5H-cyclopenta[d]pyrimidin-4-yl)piperazin-1-yl)-3-(isopropylamino)propan-1-one] | translocated to the nucleus | remains nuclear | translocated from cytoplasm to nucleus | more complete relocalization to nucleus | resistant | < 4.70 |  |  |  |  |
| CS(=O)(=O)N1CCN(Cc2cc3nc(-c4cccc5[nH]ncc45)nc(N4CCOCC4)c3s2)CC1 [GDC-0941, 2-(1H-Indazol-4-yl)-6-(4-methanesulfonyl-piperazin-1-ylmethyl)-4-morpholin-4-yl-thieno[3,2-d]pyrimidine] |  | remains nuclear | translocated from cytoplasm to nucleus | more complete relocalization to nucleus |  |  | remains nuclear | relocalizes from cytoplasm to nucleus |  |  |
| O=C(NOC[C@H](O)CO)c1ccc(F)c(F)c1Nc1ccc(I)cc1F [PD901, reference compound] |  |  |  |  |  |  |  |  | unchanged | active |
